#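 Grown in 96-well plates, cells were treated for 48 hours with each compound at five concentrations. Insufficient inhibition: endpoint recorded as highest concentration tested. GI50 is the concentration that inhibits growth by half.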 Active and inactive are the calls of the source. No stated cut-off is given here; in the data, active = GI50 up to about 1.1 µM and inactive = higher.
# Key:
# Assay in all cases: NCI-60 cell line screen, 48 h
# 786-0 = test system: 786-0
# A498 = test system: A498
# A549 = test system: A549
# ACHN = test system: ACHN
# BT-549 = test system: BT-549
# CAKI-1 = test system: CAKI-1
# CCRF-CEM = test system: CCRF-CEM
# COLO 205 = test system: COLO 205
# DU-145 = test system: DU-145
# EKVX = test system: EKVX
# HCT-116 = test system: HCT-116
# HCT-15 = test system: HCT-15
# HL-60 = test system: HL-60
# HOP-62 = test system: HOP-62
# HOP-92 = test system: HOP-92
# HT-29 = test system: HT-29
# Hs-578T = test system: Hs-578T
# IGROV-1 = test system: IGROV-1
# K562 = test system: K562
# KM12 = test system: KM12
# LOX IMVI = test system: LOX IMVI
# M14 = test system: M14
# MCF7 = test system: MCF7
# MDA-MB-231 = test system: MDA-MB-231
# MDA-MB-435 = test system: MDA-MB-435
# MDA-N = test system: MDA-N
# MOLT-4 = test system: MOLT-4
# Malme-3M = test system: Malme-3M
# NCI-H226 = test system: NCI-H226
# NCI-H23 = test system: NCI-H23
# NCI-H522 = test system: NCI-H522
# NCI/ADR-RES = test system: NCI/ADR-RES
# OVCAR-3 = test system: OVCAR-3
# OVCAR-4 = test system: OVCAR-4
# OVCAR-5 = test system: OVCAR-5
# OVCAR-8 = test system: OVCAR-8
# PC-3 = test system: PC-3
# RPMI-8226 = test system: RPMI-8226
# SF-268 = test system: SF-268
# SF-295 = test system: SF-295
# SF-539 = test system: SF-539
# SK-MEL-28 = test system: SK-MEL-28
# SK-MEL-2 = test system: SK-MEL-2
# SK-MEL-5 = test system: SK-MEL-5
# SK-OV-3 = test system: SK-OV-3
# SNB-19 = test system: SNB-19
# SR = test system: SR
# SW-620 = test system: SW-620
# T47D = test system: T47D
# TK-10 = test system: TK-10
# U-251 = test system: U-251
# UACC-257 = test system: UACC-257
# UACC-62 = test system: UACC-62
# UO-31 = test system: UO-31
# HCC 2998 = test system: HCC 2998
# NCI-H460 = test system: NCI-H460
# SN12C = test system: SN12C
# SNB-75 = test system: SNB-75
structure (smiles),measurement,setting,value
O=Cc1c2n(c3ccccc13)N[C@@](Cc1ccc(O)cc1)(C(=O)O)C2,GI50,786-0,89.1 µM (inactive)
same,GI50,A498,> 100 µM (inactive)
same,GI50,A549,> 100 µM (inactive)
same,GI50,ACHN,62.7 µM (inactive)
same,GI50,BT-549,> 100 µM (inactive)
same,GI50,CAKI-1,> 100 µM (inactive)
same,GI50,CCRF-CEM,34.5 µM (inactive)
same,GI50,COLO 205,> 100 µM (inactive)
same,GI50,DU-145,> 100 µM (inactive)
same,GI50,EKVX,> 100 µM (inactive)
same,GI50,HCT-116,38.3 µM (inactive)
same,GI50,HCT-15,47.3 µM
same,GI50,HL-60,47.1 µM (inactive)
same,GI50,HOP-62,46.7 µM (inactive)
same,GI50,HOP-92,> 100 µM (inactive)
same,GI50,HT-29,> 100 µM (inactive)
same,GI50,Hs-578T,> 100 µM (inactive)
same,GI50,IGROV-1,> 100 µM (inactive)
same,GI50,K562,97.3 µM (inactive)
same,GI50,KM12,> 100 µM (inactive)
same,GI50,LOX IMVI,55.2 µM (inactive)
same,GI50,M14,65.6 µM (inactive)
same,GI50,MCF7,55.5 µM (inactive)
same,GI50,MDA-MB-231,> 100 µM (inactive)
same,GI50,MDA-MB-435,> 100 µM (inactive)
same,GI50,MDA-N,> 100 µM (inactive)
same,GI50,MOLT-4,60.3 µM (inactive)
same,GI50,Malme-3M,60.3 µM (inactive)
same,GI50,NCI-H226,> 100 µM (inactive)
same,GI50,NCI-H23,> 100 µM (inactive)
same,GI50,NCI-H522,25.5 µM (inactive)
same,GI50,NCI/ADR-RES,35.9 µM (inactive)
same,GI50,OVCAR-3,19.5 µM (inactive)
same,GI50,OVCAR-4,68.7 µM (inactive)
same,GI50,OVCAR-5,> 100 µM (inactive)
same,GI50,OVCAR-8,> 100 µM (inactive)
same,GI50,PC-3,81.7 µM (inactive)
same,GI50,RPMI-8226,> 100 µM (inactive)
same,GI50,SF-268,36 µM (inactive)
same,GI50,SF-295,63.2 µM (inactive)
same,GI50,SF-539,> 100 µM (inactive)
same,GI50,SK-MEL-28,> 100 µM (inactive)
same,GI50,SK-MEL-2,> 100 µM (inactive)
same,GI50,SK-MEL-5,> 100 µM (inactive)
same,GI50,SK-OV-3,77.3 µM (inactive)
same,GI50,SNB-19,> 100 µM (inactive)
same,GI50,SR,38.1 µM (inactive)
same,GI50,SW-620,56.8 µM (inactive)
same,GI50,T47D,82.4 µM (inactive)
same,GI50,TK-10,> 100 µM (inactive)
same,GI50,U-251,> 100 µM (inactive)
same,GI50,UACC-257,31 µM (inactive)
same,GI50,UACC-62,> 100 µM (inactive)
same,GI50,UO-31,> 100 µM (inactive)
CC1=C/C(O)CC(=O)Cc2nc(co2)C(=O)N2CCC=C2C(=O)OC(C(C)C)C(C)/C=C\C(=O)NC/C=C\1 (stereo not drawn),GI50,786-0,20.8 µM (inactive)
same,GI50,A498,23.6 µM (inactive)
same,GI50,A549,29.9 µM (inactive)
same,GI50,ACHN,12.5 µM (inactive)
same,GI50,BT-549,20.5 µM (inactive)
same,GI50,CAKI-1,22 µM (inactive)
same,GI50,CCRF-CEM,21.6 µM (inactive)
same,GI50,COLO 205,16.3 µM (inactive)
same,GI50,DU-145,27.1 µM (inactive)
same,GI50,EKVX,18.8 µM (inactive)
same,GI50,HCC 2998,19.1 µM (inactive)
same,GI50,HCT-116,14.5 µM (inactive)
same,GI50,HCT-15,19.8 µM
same,GI50,HL-60,20.3 µM (inactive)
same,GI50,HOP-62,31.5 µM (inactive)
same,GI50,HT-29,15.5 µM (inactive)
same,GI50,Hs-578T,20 µM (inactive)
same,GI50,IGROV-1,16.6 µM (inactive)
same,GI50,K562,31 µM (inactive)
same,GI50,KM12,12.4 µM (inactive)
same,GI50,LOX IMVI,17.2 µM (inactive)
same,GI50,M14,17.3 µM (inactive)
same,GI50,MCF7,19.1 µM (inactive)
same,GI50,MDA-MB-231,23.9 µM (inactive)
same,GI50,MDA-MB-435,24.8 µM (inactive)
same,GI50,MDA-N,14.2 µM (inactive)
same,GI50,MOLT-4,16.6 µM (inactive)
same,GI50,Malme-3M,11.7 µM (inactive)
same,GI50,NCI-H226,17.7 µM (inactive)
same,GI50,NCI-H23,17.1 µM (inactive)
same,GI50,NCI-H460,54 µM (inactive)
same,GI50,NCI-H522,0.176 µM (active)
same,GI50,OVCAR-3,19.8 µM (inactive)
same,GI50,OVCAR-4,57.9 µM (inactive)
same,GI50,OVCAR-5,18.8 µM (inactive)
same,GI50,OVCAR-8,15.3 µM (inactive)
same,GI50,PC-3,27.1 µM (inactive)
same,GI50,RPMI-8226,12.9 µM (inactive)
same,GI50,SF-268,16 µM (inactive)
same,GI50,SF-295,48 µM (inactive)
same,GI50,SF-539,30.1 µM (inactive)
same,GI50,SK-MEL-28,19.6 µM (inactive)
same,GI50,SK-MEL-2,17.4 µM (inactive)
same,GI50,SK-MEL-5,33.4 µM (inactive)
same,GI50,SK-OV-3,53.1 µM (inactive)
same,GI50,SN12C,14.9 µM (inactive)
same,GI50,SNB-19,89.3 µM (inactive)
same,GI50,SNB-75,11.3 µM (inactive)
same,GI50,SR,15 µM (inactive)
same,GI50,SW-620,18.1 µM (inactive)
same,GI50,T47D,12.2 µM (inactive)
same,GI50,TK-10,31.6 µM (inactive)
same,GI50,U-251,35.8 µM (inactive)
same,GI50,UACC-257,35.3 µM (inactive)
same,GI50,UACC-62,16 µM (inactive)
C=C1[C@@H]([C@@]2(C)C=CC(=O)C(C)(C)[C@@H]2CC(=O)OC)CC[C@@]2(C)[C@H](c3ccoc3)OC(=O)[C@H]3O[C@]132 [ANDIROBIN],GI50,786-0,> 100 µM (inactive)
same,GI50,A498,79.4 µM (inactive)
same,GI50,A549,> 100 µM (inactive)
same,GI50,ACHN,> 100 µM (inactive)
same,GI50,BT-549,> 100 µM (inactive)
same,GI50,CAKI-1,> 100 µM (inactive)
same,GI50,CCRF-CEM,> 100 µM (inactive)
same,GI50,COLO 205,93.1 µM (inactive)
same,GI50,DU-145,> 100 µM (inactive)
same,GI50,EKVX,> 100 µM (inactive)
same,GI50,HCC 2998,> 100 µM (inactive)
same,GI50,HCT-116,> 100 µM (inactive)
same,GI50,HCT-15,> 100 µM
same,GI50,HL-60,62.8 µM (inactive)
same,GI50,HOP-92,> 100 µM (inactive)
same,GI50,HT-29,> 100 µM (inactive)
same,GI50,Hs-578T,> 100 µM (inactive)
same,GI50,IGROV-1,> 100 µM (inactive)
same,GI50,KM12,> 100 µM (inactive)
same,GI50,LOX IMVI,> 100 µM (inactive)
same,GI50,M14,> 100 µM (inactive)
same,GI50,MCF7,> 100 µM (inactive)
same,GI50,MDA-MB-231,> 100 µM (inactive)
same,GI50,MDA-MB-435,> 100 µM (inactive)
same,GI50,MDA-N,> 100 µM (inactive)
same,GI50,MOLT-4,83.6 µM (inactive)
same,GI50,Malme-3M,> 100 µM (inactive)
same,GI50,NCI-H226,> 100 µM (inactive)
same,GI50,NCI-H23,> 100 µM (inactive)
same,GI50,NCI-H460,> 100 µM (inactive)
same,GI50,NCI-H522,> 100 µM (inactive)
same,GI50,NCI/ADR-RES,> 100 µM (inactive)
same,GI50,OVCAR-3,> 100 µM (inactive)
same,GI50,OVCAR-4,> 100 µM (inactive)
same,GI50,OVCAR-5,> 100 µM (inactive)
same,GI50,OVCAR-8,> 100 µM (inactive)
same,GI50,PC-3,40.7 µM (inactive)
same,GI50,SF-268,> 100 µM (inactive)
same,GI50,SF-295,87.5 µM (inactive)
same,GI50,SF-539,> 100 µM (inactive)
same,GI50,SK-MEL-28,> 100 µM (inactive)
same,GI50,SK-MEL-2,> 100 µM (inactive)
same,GI50,SK-MEL-5,68.2 µM (inactive)
same,GI50,SK-OV-3,> 100 µM (inactive)
same,GI50,SN12C,> 100 µM (inactive)
same,GI50,SNB-19,> 100 µM (inactive)
same,GI50,SNB-75,46.2 µM (inactive)
same,GI50,SW-620,> 100 µM (inactive)
same,GI50,T47D,94.4 µM (inactive)
same,GI50,TK-10,> 100 µM (inactive)
same,GI50,U-251,> 100 µM (inactive)
same,GI50,UACC-257,> 100 µM (inactive)
same,GI50,UACC-62,77.4 µM (inactive)
same,GI50,UO-31,73.8 µM (inactive)

# Reference: ChEMBL document CHEMBL1201862, “PubChem BioAssay data set” (2004)
